One assay addresses T1, KRAS-G12D (Homo sapiens, UniProt P01116, G12D).
T1 construct: N-terminal biotin-acceptor peptide […]
Kind of assay: SOS-catalyzed nucleotide exchange assay (Procedure A, TR-FRET). Format: biochemical. To be noted: 60 min preincubation, SOS + GTP, read-out: KRAS G12D GNE IC50. The text has this: (§1) Procedure for SOS-Catalyzed Nucleotide Exchange Assay for KRAS-G12C/D/V, G13D, HRAS, and NRAS (Procedure A)
(§2) Recombinant KRAS-G12C protein used in this assay has an additional triple mutation (C51S/C80L/C118S), whereas KRAS-G12D/V, G13D, HRAS and NRAS are in context of their WT protein sequence background. Specifically, the SOS-catalyzed nucleotide exchange assay utilizes a preformed TR-FRET complex containing a specific biotinylated RAS protein (KRAS-G12C/V/D, G13D, HRAS, NRAS; described above) with Bodipy-GDP, and Terbium-streptavidin. Compounds are preincubated with this complex for 60 minutes. Subsequently, recombinant human SOS protein and unlabeled GTP are added to initiate the exchange reaction. Small molecule inhibitors stabilize the Bodipy-GDP complex whereas the untreated protein rapidly exchanges Bodipy-GDP for unlabeled GTP resulting in reduced TR-FRET signal.
(§3) To assemble the preformed TR-FRET complexes, each biotinylated RAS protein is diluted to 2 μM in an EDTA Buffer (20 mM HEPES pH 7.5, 50 mM sodium chloride, 10 mM EDTA, and 0.01% Tween) and incubated at room temperature for one hour. This mixture is then further diluted to 90 nM in an Assay Buffer (20 mM HEPES pH 7.5, 150 mM sodium chloride, 10 mM magnesium chloride, and 0.005% Tween) containing 15 nM of Terbium-Streptavidin (Invitrogen, catalog #PV3577) and 900 nM of Bodipy-GDP (Invitrogen, catalog #G22360) and incubated at room temperature for six hours. It should be noted that this preformed TR-FRET complex for each of the RAS protein were made ahead of time, aliquoted and stored at −80° C. until the day of the experiment.
(§4) Each test compound (10 mM stock in DMSO) is diluted in DMSO to make a final-10-point, 3-fold dilution and is acoustically dispensed into a 384-well assay plate (Corning, catalog #3820) using an Echo 550 (Labcyte). Each well of the assay plate receives 3 μL of a specific 3× RAS preformed TR-FRET complex and 3 μL of Assay Buffer and is incubated at room temperature for 60 minutes (preincubation time). Each well then receives 3 μL of 3× recombinant human SOS protein and GTP (Sigma, G8877) in Assay Buffer and is incubated at room temperature for 30 minutes (G13D), 60 minutes (G12C/D, H/NRAS) or 90 minutes for G12V. The final reaction in each well of […] consists of 3 mM GTP, specific Ras and SOS proteins in the following concentrations: KRAS-G12C/SOS=3 nM/40 nM, KRAS-G12D/SOS=1 nM/40 nM, KRAS-G12V/SOS=1.25 nM/160 nM, KRAS-G13D/SOS=1.25 nM/0 nM, HRAS & NRAS=1.25 nM/40 nM.
(§5) The time-resolved fluorescence resonance energy transfer (TR-FRET) signal is measured on an Envision (PerkinElmer) plate reader: Excitation filter=340 nm; emission1=495 nm; emission2=520 nm; dichroic mirror=D400/D505; delay time=[…]. The signal of each well is determined as the ratio of the emission at 520 nm to that at 495 nm. […] The apparent effect as a function of compound concentration is fit to a four-parameter logistic equation.

A further assay deals with T2, KRAS-G12V (Homo sapiens, UniProt P01116, G12V).
T2 construct: N-terminal biotin-acceptor peptide […]
The assay is described as above. To be noted: 60 min preincubation, SOS + GTP, read-out: KRAS G12V GNE IC50. Format: biochemical.
Source text: as §1, §2, §3, §4, §5

Assay [1] relates to PANC08.13 cells (homozygous KRAS-G12D activating mutation). Kind of assay: Cellular phospho-ERK assay in G12D cell line. Format: cell-based. To be noted: Homo sapiens, PANC-08-13, 2 hours compound incubation, ratio of p-ERK vs. total ERK, read-out: PANC 0813 pERK IC50. As for the experimental part: Procedure for Cellular Phospho-ERK Assay in G12D and G12V Cell Lines
PANC08.13 cells (ATCC® CRL-2551™), containing homozygous KRAS-G12D activating mutation, were cultured in growth medium made of RPMI1640-GlutaMAX™—I (ThermoFisher Scientific 61870) containing 15% heat inactivated fetal bovine serum (ThermoFisher Scientific 10091148)). SW620 cells (ATCC® […]), containing homozygous KRAS-G12V activating mutation, were cultured in growth medium that contains RPMI 1640-GlutaMAX™—I (ThermoFisher Scientific 61870) containing 10% heat inactivated fetal bovine serum (ThermoFisher Scientific 10091148).
Cells for the assay were harvested in growth medium after TrypLE (ThermoFisher scientific 12604021) digestion and were seeded in a 384-well collagen coated cell culture plate (Corning 356702) at a density of 10,000-15,000 cells/20 uL/well, and incubated at 37° C., 5% CO2 overnight. The compound (with 10 mM stock concentration) dose-response titrations were prepared [30 μM final ERK detection assay concentration and 1:3 dilutions, 10-point dose response] and appropriate amounts (270 nL) of test compounds were dispensed in a 384-well intermediate plate using an Echo 550 liquid handler. 30 uL/well of RPMI medium 1640-GlutaMAX™—I was added to the intermediate plate and the contents of the intermediate plate (10 uL/well) were then transferred to the 384-well collagen coated cell culture plate, which was incubated at 37° C., 5% CO2 for 2 hours. After removal of medium from the collagen coated cell culture plate, cells were lysed in lysis buffer from Alpha SureFire® Ultra™ Multiplex p-ERK and total ERK assay kit (PerkinElmer MPSU-PTERK) containing Halt™ Protease and Phosphatase inhibitor cocktail (ThermoFisher Scientific 78446) at room temperature with constant shaking at 300 rpm for 30 minutes. The cell lysates were then transferred to an OptiPlate-384 plate (PerkinElmer 6005620), and the phosphorylation of ERK (p-ERK) and total ERK levels were detected by Alpha SureFire® Ultra™ Multiplex p-EEK kit and total ERK assay kit (PerkinElmer MPSU-PTERK) following the manufacturer's protocol. Assay plates were read on a EnVision Multimode Plate Reader (PerkinElmer), and the ratio of p-ERK vs. total ERK in each well was used as the final readout. Dose response curves were analyzed using a 4-parameter logistic model to calculate IC50 values using Spotfire software.

What is called IC50 is the concentration that inhibits the measured activity by half.

T2 sequence (P01116 with tags, fused parts or gaps isoform P01116-2 G12V): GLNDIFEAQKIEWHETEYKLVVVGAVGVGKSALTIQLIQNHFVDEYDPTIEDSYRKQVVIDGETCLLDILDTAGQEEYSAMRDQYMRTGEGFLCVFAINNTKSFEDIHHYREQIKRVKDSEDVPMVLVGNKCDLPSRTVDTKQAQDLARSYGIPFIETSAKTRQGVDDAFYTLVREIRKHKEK
T1 sequence (P01116 with tags, fused parts or gaps isoform P01116-2 G12D): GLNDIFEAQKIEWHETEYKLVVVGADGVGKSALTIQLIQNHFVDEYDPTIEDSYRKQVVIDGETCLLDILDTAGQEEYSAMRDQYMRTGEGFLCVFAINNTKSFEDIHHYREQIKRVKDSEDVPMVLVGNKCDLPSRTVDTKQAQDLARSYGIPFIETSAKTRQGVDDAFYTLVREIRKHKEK

As for `N#Cc1c(N)sc2c(F)ccc(-c3cc4nc(OC[C@@]56CCCN5C[C@H](F)C6)nc(N5CCCOCC5)c4nc3C(F)(F)F)c12` [Ex. 46, 2-amino-7-fluoro-4-(2-(((2R,7aS)-2-fluorotetrahydro-1H-pyrrolizin-7a(5H)-yl)methoxy)-4-(1,4-oxazepan-4-yl)-6-(trifluoromethyl)pyrido[3,2-d]pyrimidin-7-yl)benzo[b]thiophene-3-carbonitrile], the IC50 on KRAS-G12D worked out at 40.9 nM; on KRAS-G12V it was 8.9 nM.

On to `CCC1CCOCCN1c1nc(OC[C@@]23CCCN2C[C@H](F)C3)nc2c(F)c(-c3ccc(F)c4sc(N)c(C#N)c34)c(Cl)cc12` (stereo partly drawn) [compound 14, 2-amino-4-(6-chloro-4-(5-ethyl-1,4-oxazepan-4-yl)-8-fluoro-2-(((2R,7aS)-2-fluorotetrahydro-1H-pyrrolizin-7a(5H)-yl)methoxy)quinazo-lin-7-yl)-7-fluorobenzo[b]thio-phene-3-carbonitrile], for which the IC50 stood at 154 nM in assay [1], 6.32 nM at KRAS-G12D and 6.18 nM on KRAS-G12V.

As for `Cc1cc(N)nc(-c2c(Cl)cc3c(N4CCCSCC4)nc(OC[C@@]45CCCN4C[C@H](F)C5)nc3c2F)c1C(F)(F)F` [compound 42, 6-(6-chloro-8-fluoro-2-(((2R,7aS)-2-fluorotetrahydro-1H-pyrrolizin-7a(5H)-yl)methoxy)-4-(1,4-thiazepan-4-yl)quinazolin-7-yl)-4-methyl-5-(trifluoromethyl)pyridin-2-amine], the concentration for half-maximal inhibition (IC50) at KRAS-G12D worked out at 273 nM; on KRAS-G12V, 59.1 nM.

Turning to `Cc1cc(N)nc(-c2c(Cl)cc3c(N4CCOCC(F)(F)C4)nc(OC[C@@]45CCCN4C[C@H](F)C5)nc3c2F)c1C(F)(F)F` [compound 43, 6-(6-chloro-4-(6,6-difluoro-1,4-oxazepan-4-yl)-8-fluoro-2-(((2R,7aS)-2-fluorotetrahydro-1H-pyrrolizin-7a(5H)-yl)methoxy)quinazolin-7-yl)-4-methyl-5-(trifluoromethyl)pyridin-2-amine], the IC50 amounted to 927 nM at KRAS-G12D and 91.8 nM on KRAS-G12V.

Turning to `N#Cc1c(N)sc2c(F)ccc(-c3c(Cl)cc4c(N5C6COCC5C6)nc(OC[C@@]56CCCN5C[C@H](F)C6)nc4c3F)c12` [compound 47, 4-(4-(3-oxa-6-azabicyclo[3.1.1]heptan-6-yl)-6-chloro-8-fluoro-2-(((2R,7aS)-2-fluorotetrahydro-1H-pyrrolizin-7a(5H)-yl)methoxy)quinazolin-7-yl)-2-amino-7-fluorobenzo[b]thiophene-3-carbonitrile], the IC50 at KRAS-G12D stood at 23.4 nM.

For the compound `N#Cc1c(N)sc2c(F)ccc(-c3c(Cl)cc4c(N5CCOCC5)nc(OC[C@@]56CCCN5C[C@H](F)C6)nc4c3F)c12` [compound 48, 2-amino-4-(6-chloro-8-fluoro-2-(((2R,7aS)-2-fluorotetrahydro-1H-pyrrolizin-7a(5H)-yl)methoxy)-4-morpholinoquinazolin-7-yl)-7-fluorobenzo[b]thiophene-3-carbonitrile], the IC50 on KRAS-G12D was found to be 70.9 nM; on KRAS-G12V, 8.89 nM.

Consider `C[C@H]1CCOCCN1c1nc(OC[C@@]23CCCN2C[C@H](F)C3)nc2c(F)c(-c3ccc(F)c4sc(N)c(C#N)c34)ccc12` [compound 49, 2-amino-7-fluoro-4-(8-fluoro-2-(((2R,7aS)-2-fluorotetrahydro-1H-pyrrolizin-7a(5H)-yl)methoxy)-4-((S)-5-methyl-1,4-oxazepan-4-yl)quinazolin-7-yl)benzo[b]thiophene-3-carbonitrile], for which the IC50 on KRAS-G12D came out at 477 nM; at KRAS-G12V, 160 nM.

With `C[C@H]1CCOCCN1c1nc(OC[C@@]23CCCN2C[C@H](F)C3)nc2cc(-c3ccc(F)c4sc(N)c(C#N)c34)c(C(F)(F)F)nc12` [compound 50, 2-amino-7-fluoro-4-(2-(((2R,7aS)-2-fluorotetrahydro-1H-pyrrolizin-7a(5H)-yl)methoxy)-4-((S)-5-methyl-1,4-oxazepan-4-yl)-6-(trifluoromethyl)pyrido[3,2-d]pyrimidin-7-yl)benzo[b]thiophene-3-carbonitrile], the IC50 turned out to be 30.5 nM at KRAS-G12D and 7.6 nM on KRAS-G12V.

For `N#Cc1c(N)sc2c(F)ccc(-c3c(C(F)(F)F)cc4c(N5CC6COC(C6)C5)nc(OC[C@@]56CCCN5C[C@H](F)C6)nc4c3F)c12` (stereo partly drawn) [compound 51, 4-(4-((1R,5S)-6-oxa-3-azabicyclo[3.2.1]octan-3-yl)-8-fluoro-2-(((2R,7aS)-2-fluorotetrahydro-1H-pyrrolizin-7a(5H)-yl)methoxy)-6-(trifluoromethyl)quinazo-lin-7-yl)-2-amino-7-fluorobenzo[b]thiophene-3-carbonitrile], the results for the IC50 on KRAS-G12D and at KRAS-G12V were 23.7 nM and 4.52 nM, respectively.

For `N#Cc1c(N)sc2c(F)ccc(-c3c(C(F)(F)F)cc4c(N5C[C@H]6CC[C@H]6C5)nc(OC[C@@]56CCCN5C[C@H](F)C6)nc4c3F)c12` [compound 52, 4-(4-((1R,5S)-3-azabicyclo[3.2.0]heptan-3-yl)-8-fluoro-2-(((2R,7aS)-2-fluorotetrahydro-1H-pyrrolizin-7a(5H)-yl)methoxy)-6-(trifluoromethyl)quinazo-lin-7-yl)-2-amino-7-fluorobenzo[b]thiophene-3-carbonitrile], the IC50 at KRAS-G12D was determined as 210 nM; at KRAS-G12V, 43.1 nM.

In the case of `N#Cc1c(N)sc2c(F)ccc(-c3c(C(F)(F)F)cc4c(N5CCC6(C5)CC6(F)F)nc(OC[C@@]56CCCN5C[C@H](F)C6)nc4c3F)c12` (stereo partly drawn) [compound 53, 2-amino-4-(4-(1,1-difluoro-5-azaspiro[2.4]heptan-5-yl)-8-fluoro-2-(((2R,7aS)-2-fluorotetrahydro-1H-pyrrolizin-7a(5H)-yl)methoxy)-6-(trifluoromethyl)quinazo-lin-7-yl)-7-fluorobenzo[b]thiophene-3-carbonitrile], the figures for the IC50 on KRAS-G12D and at KRAS-G12V were 972 nM and 84.7 nM, respectively.

Values taken from patent publication US20260083750A1, “SMALL MOLECULE INHIBITORS OF KRAS PROTEINS” (MERCK SHARP & DOHME LLC, priority 2022, published 2026).
